Results taken from patent US7919268B2, “Reducing sample turbidity in measurement of enzymatic activity in cell lysates” (Roche Diagnostics Operations, Inc., priority 2005, dated 2011).
Structures can show the parent of a compound that is named as a salt. Where two headings read alike, the source gives them in different places.

Assays:
[1] = tested on: human suspension cell line U 937; test: Absorption of cells at 690 nm after treatment with different reagents; type: cell-based; conditions: reagent final concentration 1% (v/v)
Experimental: The human suspension cell line U 937 was cultured in RPMI 1640 medium (Sigma Company) containing 10% foetal calf serum and 2 mM glutamine. The cells were then washed in fresh RPMI medium and adjusted to 25,000, 50,000 and 100,000 cells/100 μl. 100 μl thereof was in each case transferred to a 96-well standard microtitre plate. 50 μl RPMI medium containing the appropriate reagents was added by pipette to each of the cell solutions.
The absorption of each well was measured at a wavelength of 690 nm after 5 min and 75 min incubation.

LDH [2] = conditions: 0.2 M HCl, Triton X100 1% (v/v)
Experimental: In another experiment HCl and NaOH were used as a stop reagent.
For this purpose cell-free lysates each of 1000 cells were used in an LDH test with the components from the Cytotoxicity Detection Kit (LDH) containing the modified dye solution. After a reaction time of 30 min different stop reagents were added to these mixtures and the absorption was monitored at 492 nm (the absorption maximum of reduced INT).

LDH [3] = type: biochemical, human; conditions: SDS 3% (v/v), sodium oxamate 15 mM, Triton X100 1% (v/v); for Absorption 0 min after adding stop reagent / Absorption 30 min after adding stop reagent / Absorption 120 min after adding stop reagent: 492 nm, lysate of 5000 cells, reaction time 5 min
[4] = 492 nm, lysate of 1000 cells, reaction time 30 min

| Compound | Absorption after 5 min ([1]; 25 000 U 937 cells) | Absorption after 75 min ([1]; 25 000 U 937 cells) | Absorption after 5 min ([1]; 50 000 U 937 cells) | Absorption after 75 min ([1]; 50 000 U 937 cells) | Absorption after 5 min ([1]; 100 000 U 937 cells) | Absorption after 75 min ([1]; 100 000 U 937 cells) | Termination of the LDH reaction (in words) (LDH [2]) | Absorption 0 min after adding stop reagent (LDH [2]; [4]) | Absorption 30 min after adding stop reagent (LDH [2]; [4]) | Absorption 120 min after adding stop reagent (LDH [2]; [4]) | Absorption 0 min after adding stop reagent (LDH [3]) | Absorption 30 min after adding stop reagent (LDH [3]) | Absorption 120 min after adding stop reagent (LDH [3]) | Termination of the LDH reaction (in words) (LDH [3]) |
| --- | --- | --- | --- | --- | --- | --- | --- | --- | --- | --- | --- | --- | --- | --- |
| CCCCCCCCCCCCCCCC[N+](C)(C)C.[Br-] [CTAB, cetyltrimethylammonium bromide] | 0.006 | 0.003 | 0.031 | 0.014 | 0.025 | 0.018 |  |  |  |  |  |  |  |  |
| CCCCCCCCCCCC[N+](C)(C)C.[Br-] [DTAB, dodecyltrimethylammonium bromide] | 0.005 | 0.006 | 0.012 | 0.011 | 0.024 | 0.021 |  |  |  |  |  |  |  |  |
| Cl [HCl] |  |  |  |  |  |  | suitable stop reagent | 0.275 | 0.271 | 0.261 |  |  |  |  |
| CCCCCCCCCCCCN(C)CC(=O)O [N-laurylsarcosine] | 0.001 | 0.002 | 0.003 | 0.004 | 0.012 | 0.013 |  |  |  |  |  |  |  |  |
| CCCCCCCCCCCCOS(=O)(=O)[O-].[Na+] [SDS, sodium dodecyl sulphate] | 0.002 | 0.003 | 0.006 | 0.006 | 0.010 | 0.010 |  |  |  |  | 0.113 | 0.113 | 0.105 | stop the LDH reaction |
| NC(=O)C(=O)[O-].[Na+] [sodium oxamate] |  |  |  |  |  |  |  |  |  |  | 0.113 | 0.127 | 0.179 | stop the LDH reaction |
| octylphenoxypolyethoxyethanol [Triton X100] | 0.001 | 0.001 | 0.004 | 0.004 | 0.008 | 0.008 |  |  |  |  |  |  |  |  |
